Test results published in patent US10308686B2, “Gamma-AApeptides with potent and broad-spectrum antimicrobial activity” (priority 2012, dated 2019).
≈ marks a conversion by molar mass, not a printed value. Read-outs that look alike come from different tables or passages of the source. No end group written: not given here.

Assays:
[1] = test system: human red blood cells (hRBC's); conditions: cited from earlier work
[2] = test system: K. pneumoniae (ATCC 13383)
[3] = test system: E. coli (JM109)
[4] = test system: human red blood cells (hRBC's); assay: Hemolysis assay; assay type: cell-based; conditions: for Hemolysis HC10 / Hemolysis HC50: red cells of human
Experimental: Freshly drawn human red blood cells (hRBC's) with additive K2 EDTA (spray-dried) were washed with PBS buffer several times and centrifuged at 1000 g for 10 min until a clear supernatant was observed. The hRBC's were resuspended in 1×PBS to get a 5% v/v suspension. Two-fold serial dilutions of γ-AApeptides dissolved in 1×PBS from 250 μg/ml through 1.6 μg/ml were added to a sterile 96-well plate to make up a total volume of 50 μL in each well. Then 50 μL of 5% v/v hRBC solution was added to make up a total volume of 100 μL in each well. The 0% hemolysis point and 100% hemolysis point were determined in 1×PBS and 0.2% Triton-X-100, respectively (Patch et al., 2003). The plate was then incubated at 37° C. for 1 h and centrifuged at 3500 rpm for 10 min. The supernatant (30 μL) was diluted with 100 μL of 1×PBS and absorption was detected by measuring the optical density at 360 nm by Biotek Synergy HT microtiter plate reader. % hemolysis was determined by the following equation: % hemolysis=(Abssample−AbsPBS)/(AbsTriton−AbsPBS)×100 H50 is the concentration of γ-AApeptide amphiphiles at which 50% hemolysis was observed. The highest concentration tested in the hemolytic assay was 500 μg/ml. 7. Fluorescence Microscopy
The sequences shown in FIG. 12 were also evaluated via hemolytic assays. Freshly drawn human red blood cells (hRBC's) with additive K2 EDTA (spray-dried) were washed with PBS buffer several times and centrifuged at 1000 g for 10 min until a clear supernatant was observed. The hRBC's were resuspended in 1×PBS to get a 5% v/v suspension. Two-fold serial dilutions of lipidated γ-AApeptides dissolved in 1×PBS from 1 mg/ml through 6.3 μg/ml were added to sterile 96-well plates to make up a total volume of 50 μL in each well. Then 50 μL of 5% v/v hRBC solution was added to make up a total volume of 100 μL in each well. The 0% hemolysis point and 100% hemolysis point were determined in 1×PBS and 0.2% Triton-X-100, respectively (Patch et al., 2003). The plate was then incubated at 37° C. for 1 h and centrifuged at 3500 rpm for 10 min. The supernatant (30 μL) was diluted with 100 μL of 1×PBS and absorption was detected by measuring the optical density at 360 nm with a Biotek Synergy HT microtiter plate reader. % hemolysis was determined by the following equation: % hemolysis=(Abs sample−Abs PBS)/(Abs Triton−Abs PBS)×100

[5] = test system: multi-drug resistant S. epidermidis (RP62A); conditions: for MIC, Gram positive S. epidermidis: Table 7
[6] = test system: vancomycin-resistant E. faecalis (ATCC 700802); conditions: for MIC, Gram positive E. faecalis: Table 7
[7] = test system: methicillin-resistant S. aureus (ATCC 33592); conditions: for MIC, Gram positive S. aureus: Table 7
[8] = test system: C. albicans (ATCC 10231)
[9] = test system: B. subtilis (BR151)
[10] = test system: B. anthracis
[11] = test system: multi-drug resistant P. aeruginosa ATCC 27853; conditions: ATCC 27853
[12] = test system: methicillin-resistant S. aureus (MRSA, USA100 lineage)
[13] = test system: Gram-positive and Gram-negative bacteria and the fungus C. albicans; assay: Antimicrobial assays, whole panel (statements in words); assay type: cell-based

Compound	MIC, K. pneumoniae (causing pneumonia) [2] [µg/mL]	MIC, E. coli [3] [µg/mL]	Hemolysis (H50) [4] [µg/mL]	MIC, S. epidermidis (multi-drug resistant) ([5]; Table 1) [µg/mL]	MIC, E. faecalis (vancomycin-resistant) ([6]; Table 1) [µg/mL]	MIC, S. aureus (methicillin-resistant) ([7]; Table 1) [µg/mL]	MIC, Fungi C. albicans ([8]; ATCC 10231, 48 h) [µg/mL]	MIC, B. subtilis [9] [µg/mL]	MIC, B. anthracis (lethal bioweapon) ([10]; Table 1) [µg/mL]	MIC, Gram negative K. pneumoniae [2] [µg/mL]	MIC, Gram negative E. coli [3] [µg/mL]	Hemolysis HC10 [4] [µg/mL]	Hemolysis HC50 [4] [µg/mL]	MIC, Gram positive S. epidermidis [5] [µg/mL]	MIC, Gram positive E. faecalis [6] [µg/mL]	MIC, Gram positive S. aureus [7] [µg/mL]	MIC, Fungi, C. albicans ([8]; ATCC 10231) [µg/mL]	MIC, Gram negative P. aeruginosa [11] [µg/mL]	MIC, Gram positive B. subtilis [9] [µg/mL]	further results
GIGKFLKKAKKFGKAFVKILKK-NH2 [Pexiganan, pexiganan]	–	–	–	–	–	–	–	–	–	–	–	–	–	–	–	–	–	–	–	Hemolysis (H50) [1]: >500 µg/mL; Hemolysis H10 [1]: 181 µg/mL; Hemolysis H50 [1]: 495 µg/mL
NCCCC[C@H](N)CN(CC(=O)N[C@@H](CCCCN)CN(CC(=O)N[C@@H](CCCCN)CN(CC(=O)N[C@@H](CCCCN)CN(CC(=O)N[C@@H](CCCCN)CN(CC(=O)N[C@@H](CCCCN)CN(CC(=O)N[C@@H](CCCCN)CN(CC(N)=O)C(=O)CCc1ccccc1)C(=O)CCc1ccccc1)C(=O)CCc1ccccc1)C(=O)CCc1ccccc1)C(=O)CCc1ccccc1)C(=O)CCc1ccccc1)C(=O)CCc1ccccc1 [γ3]	>100	2.5 to 5	>500	6.25 to 12.5	12.5 to 25	12.5 to 25	12.5 to 25	2.5 (≈ 1.17 µM)	25 to 50	–	–	–	–	–	–	–	–	–	–	–
CC(C)C[C@@H](CN(CC(=O)N[C@@H](CCCCN)CN(CC(N)=O)C(=O)CCc1ccccc1)C(=O)CCc1ccccc1)NC(=O)CN(C[C@H](CCCCN)NC(=O)CN(C[C@H](CCCCN)NC(=O)CN(C[C@H](CC(C)C)NC(=O)CN(C[C@H](CCCCN)NC(=O)CN(C[C@@H](N)CCCCN)C(=O)CCc1ccccc1)C(=O)CCc1ccccc1)C(=O)CCc1ccccc1)C(=O)CCc1ccccc1)C(=O)CCc1ccccc1 [γ5]	5 (≈ 2.37 µM)	2.5 to 5	300	3.1 to 6.25	3.1 to 6.25	5 (≈ 2.37 µM)	5 to 10	2 (≈ 0.947 µM)	5 (≈ 2.37 µM)	5 (≈ 2.37 µM)	3 (≈ 1.42 µM)	75	300	5 (≈ 2.37 µM)	5 (≈ 2.37 µM)	5 (≈ 2.37 µM)	8 (≈ 3.79 µM)	>50	2 (≈ 0.947 µM)	Hemolysis H10 [4]: 75 µg/mL; Hemolysis H50 [4]: 300 µg/mL; MIC, S. epidermidis (multi-drug resistant) ([5]; Table 3): 3.1 to 6.3 µg/mL; MIC, E. faecalis (vancomycin-resistant) ([6]; Table 3): 3.1 to 6.3 µg/mL; MIC, Fungi C. albicans ([8]; ATCC 10231): 5 to 10 µg/mL; MIC, P. aeruginosa [11]: 25 to 50 µg/mL; MIC, MRSA USA100 (leading hospital-associated strain) ([12]; Table 1): 5 µg/mL (≈ 2.37 µM); MIC, MRSA USA100 ([12]; Table 3): 5 µg/mL (≈ 2.37 µM)
KFKFKFKFKFKFKF-NH2 [pl, reference compound]	>100	>100	>500	>100	>100	>100	>100	>100	–	–	–	–	–	–	–	–	–	–	–	antimicrobial activity against the tested panel, in words [13]: does not show any antimicrobial activity at all
NCCCC[C@@H](C(N)=O)N(CCNC(=O)[C@H](CCCCN)N(CCNC(=O)[C@H](CCCCN)N(CCNC(=O)[C@H](CCCCN)N(CCNC(=O)[C@H](CCCCN)N(CCNC(=O)[C@H](CCCCN)N(CCNC(=O)[C@H](CCCCN)N(CCN)C(=O)CCc1ccccc1)C(=O)CCc1ccccc1)C(=O)CCc1ccccc1)C(=O)CCc1ccccc1)C(=O)CCc1ccccc1)C(=O)CCc1ccccc1)C(=O)CCc1ccccc1 [α1, reference compound]	>100	4.5 (≈ 2.1 µM)	–	–	–	–	20 to 30	2 (≈ 0.934 µM)	–	–	–	–	–	–	–	–	–	–	–	Hemolysis (H50) ([4]; Table 1, concentration at which 50% hemolysis was observed): >500 µg/mL; MIC, S. epidermidis (multi-drug resistant) ([5]; multi-drug resistant (RP62A)): 10 µg/mL (≈ 4.67 µM); MIC, E. faecalis (vancomycin-resistant) ([6]; ATCC 700802): 75 µg/mL (≈ 35 µM); MIC, S. aureus (methicillin-resistant) ([7]; ATCC 33592): 75 µg/mL (≈ 35 µM); MIC, MRSA USA100 (leading hospital-associated strain) ([12]; USA100): >100 µg/mL; MIC, B. anthracis (lethal bioweapon) [10]: >100 µg/mL
CC(C)C[C@@H](CN(CC(=O)N[C@@H](CCCCN)CN(CC(=O)N[C@@H](CCCCN)CN(CC(=O)N[C@@H](CCCCN)CN(CC(N)=O)C(=O)CCc1ccccc1)C(=O)CCc1ccccc1)C(=O)CCc1ccccc1)C(=O)CCc1ccccc1)NC(=O)CN(C[C@H](CCCCN)NC(=O)CN(C[C@H](CCCCN)NC(=O)CN(C[C@@H](N)CCCCN)C(=O)CCc1ccccc1)C(=O)CCc1ccccc1)C(=O)CCc1ccccc1 [γ4]	–	2.5 to 5	>500	3.1 to 6.25	12.5 to 25	3.1 to 6.25	12.5 to 25	2.5 (≈ 1.18 µM)	25 to 50	–	–	–	–	–	–	–	–	–	–	–
CCCCCCCCCCCCCCCC(=O)N[C@@H](C)CN(CC(=O)N[C@@H](CCCCN)CN(CC(=O)N[C@@H](Cc1ccccc1)CN(CC(=O)N[C@@H](Cc1ccccc1)CN(CC(N)=O)C(=O)CCc1c[nH]cn1)C(=O)CCc1c[nH]cn1)C(=O)CCCN)C(C)=O [γAA3]	12.5 to 25	1.6 to 3.1	150	–	–	–	–	1.6 to 3.1	–	–	–	–	–	–	–	–	–	–	–	MIC, S. epidermidis (multi-drug resistant) ([5]; Table 3): 1.6 to 3.1 µg/mL; MIC, E. faecalis (vancomycin-resistant) ([6]; Table 3): 1.6 to 3.1 µg/mL; MIC, S. aureus (methicillin-resistant) ([7]; Table 3): 1.6 to 3.1 µg/mL; MIC, Fungi C. albicans ([8]; ATCC 10231): 1.6 to 3.1 µg/mL; MIC, P. aeruginosa [11]: 3 to 6 µg/mL
CCCCCCCCCCCC(=O)N[C@@H](CCCCN)CN(CC(N)=O)C(=O)CCCN [Sequence 1]	–	–	–	–	–	–	–	–	–	>50	>50	400	> 500	>50	>50	>50	>50	>50	>50	antimicrobial activity against the tested panel, in words [13]: not active toward any microorganism
CCCCCCCCCCCCCCCC(=O)N[C@@H](C)CN(CC(=O)N[C@@H](C)CN(CC(=O)N[C@@H](CCC(=O)O)CN(CC(=O)N[C@@H](CCC(=O)O)CN(CC(=O)N[C@@H](CCC(=O)O)CN(CC(N)=O)C(=O)CC(=O)O)C(=O)CC(=O)O)C(=O)CC(=O)O)C(C)=O)C(C)=O [Sequence 7]	–	–	–	–	–	–	–	–	–	>100	>100	250	> 500	>100	>100	>100	>100	>100	>100	–
CCCCCCCCCCCCCCCC(=O)N[C@@H](CCCCN)CN(CC(=O)N[C@@H](CCCCN)CN(CC(=O)N[C@@H](CCCCN)CN(CC(N)=O)C(=O)CCCN)C(=O)CCCN)C(=O)CCCN [Sequence 4]	–	–	–	–	–	–	–	–	–	>50	20 (≈ 19.5 µM)	300	> 500	2 (≈ 1.95 µM)	10 (≈ 9.76 µM)	5 (≈ 4.88 µM)	2 (≈ 1.95 µM)	15 (≈ 14.6 µM)	1.5 (≈ 1.46 µM)	–
